Experimental data taken from patent publication EP2322149A1, “Methods and compositions for the treatment of ischemia” (Universidad del Pais Vasco, priority 2009, dated 2011).
“Also recorded” adds a separate entry of the source. Counter-ions that a name gives are not always drawn.

How the values were obtained:
P2X7 = target: T1, P2X7 (Homo sapiens, UniProt Q99572); settings: cited from earlier work
T1 sequence (Q99572 1-595): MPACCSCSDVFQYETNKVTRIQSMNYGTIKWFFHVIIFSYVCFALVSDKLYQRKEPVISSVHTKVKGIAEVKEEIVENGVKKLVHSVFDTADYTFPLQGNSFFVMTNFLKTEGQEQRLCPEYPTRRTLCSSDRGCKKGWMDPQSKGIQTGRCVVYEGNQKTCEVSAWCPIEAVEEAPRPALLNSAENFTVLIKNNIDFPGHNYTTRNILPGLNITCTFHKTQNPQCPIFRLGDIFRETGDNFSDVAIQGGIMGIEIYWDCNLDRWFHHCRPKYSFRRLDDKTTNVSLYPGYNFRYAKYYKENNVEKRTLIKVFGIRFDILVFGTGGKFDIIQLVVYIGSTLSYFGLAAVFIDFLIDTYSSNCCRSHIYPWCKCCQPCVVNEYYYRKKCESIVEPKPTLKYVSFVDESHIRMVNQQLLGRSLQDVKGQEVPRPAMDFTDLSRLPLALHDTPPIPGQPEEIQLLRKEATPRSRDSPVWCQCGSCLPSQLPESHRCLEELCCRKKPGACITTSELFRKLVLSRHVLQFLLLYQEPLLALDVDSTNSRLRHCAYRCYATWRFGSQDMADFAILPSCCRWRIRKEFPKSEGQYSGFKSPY

P2X2 = target: T2, P2X2 (Homo sapiens, UniProt Q9UBL9); settings: read-out: IC50 P2X2; cited from earlier work
T2 sequence (Q9UBL9 1-471): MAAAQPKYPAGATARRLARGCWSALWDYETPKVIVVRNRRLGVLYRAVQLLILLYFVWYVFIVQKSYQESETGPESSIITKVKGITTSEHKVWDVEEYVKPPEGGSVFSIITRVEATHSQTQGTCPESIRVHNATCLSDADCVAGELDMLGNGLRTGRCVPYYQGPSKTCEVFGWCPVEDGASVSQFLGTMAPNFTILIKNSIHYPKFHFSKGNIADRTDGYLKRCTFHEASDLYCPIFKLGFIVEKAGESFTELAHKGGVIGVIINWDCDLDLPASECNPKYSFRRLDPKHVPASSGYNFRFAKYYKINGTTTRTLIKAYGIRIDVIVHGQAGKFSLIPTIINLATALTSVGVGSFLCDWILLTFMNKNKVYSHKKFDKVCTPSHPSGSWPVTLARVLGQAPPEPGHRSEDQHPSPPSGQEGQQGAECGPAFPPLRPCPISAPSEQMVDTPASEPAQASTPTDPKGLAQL

P2X1 = target: T3, P2X1 (Homo sapiens, UniProt P51575); settings: read-out: IC50 P2X1; cited from earlier work
T3 sequence (P51575 1-399): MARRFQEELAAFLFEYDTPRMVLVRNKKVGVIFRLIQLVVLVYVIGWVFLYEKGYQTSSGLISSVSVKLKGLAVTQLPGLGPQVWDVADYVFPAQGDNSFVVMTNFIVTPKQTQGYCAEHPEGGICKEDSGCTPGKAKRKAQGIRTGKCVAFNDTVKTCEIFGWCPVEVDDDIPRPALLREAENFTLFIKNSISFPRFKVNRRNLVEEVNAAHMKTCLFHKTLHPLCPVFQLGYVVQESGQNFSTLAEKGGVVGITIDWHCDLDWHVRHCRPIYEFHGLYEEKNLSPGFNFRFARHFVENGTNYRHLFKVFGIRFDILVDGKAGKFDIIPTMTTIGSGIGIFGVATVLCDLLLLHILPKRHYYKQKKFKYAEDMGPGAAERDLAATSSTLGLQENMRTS

P2X3 = target: T4, P2X3 (Homo sapiens, UniProt P56373); settings: read-out: IC50 P2X3; cited from earlier work
T4 sequence (P56373 1-397): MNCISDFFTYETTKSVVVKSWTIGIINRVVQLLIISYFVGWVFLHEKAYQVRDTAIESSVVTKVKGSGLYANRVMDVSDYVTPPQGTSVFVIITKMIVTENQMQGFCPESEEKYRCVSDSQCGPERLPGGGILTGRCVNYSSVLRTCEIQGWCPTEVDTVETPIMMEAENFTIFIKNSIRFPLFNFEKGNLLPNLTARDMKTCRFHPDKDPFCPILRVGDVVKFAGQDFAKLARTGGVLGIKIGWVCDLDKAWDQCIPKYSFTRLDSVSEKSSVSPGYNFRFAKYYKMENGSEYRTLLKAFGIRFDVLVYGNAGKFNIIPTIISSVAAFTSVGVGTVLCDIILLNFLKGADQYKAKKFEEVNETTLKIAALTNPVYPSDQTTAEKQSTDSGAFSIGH

[1] = test system: cultured optic nerve oligodendrocytes; assay: ATP release measurement (luciferin/luciferase) in oligodendrocyte cultures after OGD; type: cell-based, Sprague-Dawley rats
Description: (§1) Primary cultures of oligodendrocytes derived from optic nerves of 12 day-old Sprague-Dawley rats were obtained as previously described (Matute et al., 1997 Proc Natl Acad Sci U S A 94:8830-8835.).Cells were maintained at 37°C and 5% CO2 in a chemically defined medium (Matute et al., 1997 Proc Natl Acad Sci U S A 94:8830-8835.). After 2-4 days in vitro, cultures were composed of at least 98% 04/Ga1C^+ cells. No microglial cells were detected in these cultures. […] Cell death was determined 24h later using calcein-AM (Invitrogen) as previously described (Matute et al., 1997 Proc Natl Acad Sci U S A 94:8830-8835.). Antagonists were present during in vitro ischaemia and during the next 24h incubation period. […] To assay the levels of reactive oxygen species (ROS), cells were loaded with 40 µM 2',7'- dichlorodihyfluoresceindiacetate (DCFDA; Invitrogen) and 1 µM calcein red-orange (Molecular Probes) immediately after OGD. Calcein was used to quantify the number of cells within the reading field. Fluorescence was measured as above and values were plotted as the percentage of DCFDA/calcein red-orange fluorescence versus control. The changes in mitochondrial membrane potential were monitored with 5,5',6,6'-tetrachloro-1,1',3,3'-tetraethylbenzimidazolcarbocyanine iodide (JC-1; Molecular Probes). Immediately after OGD, cells were loaded with JC-1 (3 µM) at 37°C for 30 min. The changes in the membrane potential were calculated as the red (emission at 590)/green (emission at 520) ratio in each condition and results were normalized to control.
ATP levels were measured using a Luciferin/Luciferase assay kit (Invitrogen) after 1h normoxia or OGD in oligodendrocyte cultures and in isolated optic nerves according to the manufacturer's instructions. The luminescence was measured with a luminometer Synergy-HT (BioTek) with an integration time of 3 sec. Because ATP was measured in the culture medium and in the solution bathing optic nerves, the concentration of ATP at the extracellular surface, near the vicinity of the receptor was underestimated (Joseph et al., 2003. J Biol Chem 278:23331-23342). The limit of ATP detection was 1 nM and luminescence was linear with increasing ATP concentrations to 1000 nM. The total amount of ATP was calculated according to standard curves and ATP release was expressed in percentage vs control.

[2] = test system: optic nerve oligodendrocytes; assay: Oxygen and glucose deprivation (OGD) cell death in oligodendrocyte cultures (calcein-AM); type: cell-based, Sprague-Dawley rats; settings: 1h OGD, calcein 24h later; PPADS 100 µM, BBG 50 nM, CNQX 30 µM, APV 100 µM, apyrase 20 U/ml, ARL67156 100 µM, CBX 20 µM, FFA 100 µM, MFQ 1 nM
Description: as §1

optic nerves = assay: Optic nerve ischaemia (OGD), tissue damage by LDH release; design: species or system rats; settings: P28 rat optic nerves, 1h OGD + 2h reperfusion; PPADS 1 mM, BBG 50 nM, oATP 1 mM, apyrase 20 U/ml, MFQ 1 µM, CBX 100 µM, FFA 1 mM
Description: After 1h OGD at 37°C, the medium was replaced with fresh solution containing glucose and equilibrated with 95% O2, 5% CO2 and the nerves were incubated for another 2h at 37°C to simulate reperfusion.

P2X6 = P2X6 (Homo sapiens, UniProt O15547); settings: read-out: IC50 P2X6; cited from earlier work
Chain of P2X6 (O15547 whole entry, species assumed): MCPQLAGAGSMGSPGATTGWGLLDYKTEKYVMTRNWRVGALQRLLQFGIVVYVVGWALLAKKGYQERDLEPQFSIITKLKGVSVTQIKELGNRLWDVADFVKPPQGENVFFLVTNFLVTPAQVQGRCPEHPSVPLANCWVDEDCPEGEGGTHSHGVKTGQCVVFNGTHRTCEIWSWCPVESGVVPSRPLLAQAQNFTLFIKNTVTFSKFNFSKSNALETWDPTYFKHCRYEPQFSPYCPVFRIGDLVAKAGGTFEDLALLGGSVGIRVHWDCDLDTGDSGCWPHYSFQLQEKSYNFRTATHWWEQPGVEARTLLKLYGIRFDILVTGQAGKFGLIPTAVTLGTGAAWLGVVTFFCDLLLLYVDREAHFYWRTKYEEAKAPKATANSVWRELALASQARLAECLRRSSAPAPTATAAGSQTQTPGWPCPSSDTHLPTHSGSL

Compound	IC50 (P2X7) [µM]	IC50 (P2X2) [µM]	IC50 (P2X3) [µM]	also measured
O=C(Nc1ccc(C(=O)Nc2ccc(C(=O)Nc3ccc(S(=O)(=O)O)c4cc(S(=O)(=O)O)cc(S(=O)(=O)O)c34)cc2)cc1)Nc1ccc(C(=O)Nc2ccc(C(=O)Nc3ccc(S(=O)(=O)O)c4cc(S(=O)(=O)O)cc(S(=O)(=O)O)c34)cc2)cc1 [NF279]	2.8	0.77	1.6	IC50 (P2X1): 2 µM
Cc1nc(N=Nc2cc(S(=O)(=O)O)ccc2S(=O)(=O)O)c2c(c1O)COP(=O)(O)OC2 [MRS2220, cyclic pyridoxine-alpha.4,5-monophosphate-6-azo-phenyl-2',5'disulfonate]			58	IC50 (P2X1): 10 µM
O=C(O)c1ccccc1Nc1cccc(C(F)(F)F)c1 [FFA, 2-[3-(trifluoromethyl)anilino]benzoic acid]				ATP levels after OGD ([1]; 1h OGD in the presence of ARL67156, CBX 20 µM, FFA 100 µM, MFQ 1 nM (figure legend)): significantly reduced; OGD-induced oligodendrocyte cell death [2]: inhibited; ischaemia-induced damage to optic nerves (LDH release) (optic nerves): reduced; also recorded: attenuated
1-amino-4-[[4-[[4-chloro-6-[[3 (or 4)-sulfophenyl]amino]-1,3,5-triazin-2-yl]amino]-3-sulfophenyl]amino]-9,10-dihydro-9,10-dioxo-2-anthracenesulfonic acid [RB-2]		1		
Cc1nc(N=Nc2cc(S(=O)(=O)O)c3cc([N+](=O)[O-])cc(S(=O)(=O)O)c3c2)c(CO[P+]([O-])(O)O)c(C=O)c1O [PPNDS]		0.015		
CCN(CC)c1ncnc2c1ncn2[C@@H]1O[C@H](COP(=O)(O)OP(=O)(O)C(Br)(Br)P(=O)(O)O)[C@@H](O)[C@H]1O [ARL67156]				ATP concentration after OGD ([1]; 1h OGD, ARL67156 100 µM, percentage vs control, OGD alone 181.2 ± 25.3 %): 439.6 ± 71.0%; ATP release after 1h OGD ([1]; ARL67156 100 µM): potentiated; OGD-induced oligodendrocyte cell death [2]: increased; also recorded: potentiated
Cc1ccc(C(=O)Nc2ccc(S(=O)(=O)O)c3cc(S(=O)(=O)O)cc(S(=O)(=O)O)c23)cc1NC(=O)c1cccc(NC(=O)Nc2cccc(C(=O)Nc3cc(C(=O)Nc4ccc(S(=O)(=O)O)c5cc(S(=O)(=O)O)cc(S(=O)(=O)O)c45)ccc3C)c2)c1 [Suramin, hexasodium salt of 8,8'-[carbonylbis[imino-3,1-phenylenecarbonylimino(4-methyl-3,1-phenylene)carbonylimino]] bisnaphthalene-1,3,5-trisulphonic acid]		1 to 5		IC50 (P2X6): > 100 µM
NC(N)=NC(=O)c1nc(Cl)c(N2CCCCCC2)nc1N [HMA]	4.5			
CN([C@@H](Cc1ccc(OS(=O)(=O)c2cccc3cnccc23)cc1)C(=O)N1CCN(c2ccccc2)CC1)S(=O)(=O)c1cccc2cnccc12 [KN-62, ester of 4-[(2S)-2-[(5-isoquinolinylsulfonyl)methylamino]-3-oxo-3-(4-phenyl-1-piperazinyl)propyl] phenyl isoquinolinesulfonic acid]	0.015			
Nc1ncnc2c1ncn2[C@@H]1O[C@H](COP(=O)(O)OP(=O)(O)OP(=O)(O)O)[C@H]2OC3(O[C@H]21)C([N+](=O)[O-])=CC(=[N+]([O-])[O-])C=C3[N+](=O)[O-] (stereo partly shown) [TNP-ATP, monolithium salt of 2',3'-O-2,4,6-trinitrophenyl-adenosine 5'-triphosphate]	> 30			
O=C(Nc1cc(C(=O)Nc2ccc(S(=O)(=O)O)cc2S(=O)(=O)O)cc(C(=O)Nc2ccc(S(=O)(=O)O)cc2S(=O)(=O)O)c1)Nc1cc(C(=O)Nc2ccc(S(=O)(=O)O)cc2S(=O)(=O)O)cc(C(=O)Nc2ccc(S(=O)(=O)O)cc2S(=O)(=O)O)c1 [NF449, octasodium salt of 4,4',4",4"'-(carbonylbis(imino-5,1,3-benzenetriylbis(carbonylimino)))tetrakis-benzene-1,3-disulfonic acid]			< 0.006	
Cc1nc(/N=N/c2cc(S(=O)(=O)O)ccc2S(=O)(=O)O)c(COP(=O)(O)O)c(C=O)c1O [isoPPADS, tetrasodium salt of pyridoxalphosphate-6-azophenyl-1',4'-disulfonic acid]			1	IC50 (P2X1): 1 to 5 µM
